How the values were obtained:
human GluR4B receptor = biological target: T1, human GluR4B receptor (Homo sapiens, UniProt P48058); experiment: potentiation of glutamate receptor-mediated response in HEK cells stably expressing human GluR4B (Fluo-3 calcium fluorescence); format: cell-based; details: human GluR4B receptor expressed in HEK 293 cells
T1 construct: expressed in transfected cells
Excerpt: The ability of compounds of formula I to potentiate glutamate receptor-mediated response may be determined using fluorescent calcium indicator dyes (Molecular Probes, Eugene, Oreg., Fluo-3) and by measuring glutamate-evoked efflux of calcium into GluR4 transfected HEK293 cells, as described in more detail below.
In one test, 96 well plates containing confluent monolayers of HEK cells stably expressing human GluR4B (obtained as described in European Patent Application Publication Number EP-A1-583917) are prepared. The tissue culture medium in the wells is then discarded, and the wells are each washed once with 200 μl of buffer (glucose, 10 mM, sodium chloride, 138 mM, magnesium chloride, 1 mM, potassium chloride, 5 mM, calcium chloride, 5 mM, N-[2-hydroxyethyl]-piperazine-N-[2-ethanesulfonic acid], 10 mM, to pH 7.1 to 7.3). […]
Each test is then performed as follows. […] A second fluorescent reading is taken after 5 minutes incubation. 15 μl of 400 μM glutamate solution is then added to each well (final glutamate concentration 100 μM), and a third reading is taken. The activities of test compounds and cyclothiazide solutions are determined by subtracting the second from the third reading (fluorescence due to addition of glutamate in the presence or absence of test compound or cyclothiazide) and are expressed relative to enhance fluorescence produced by 100 μM cyclothiazide.

T1 sequence (P48058 21-902): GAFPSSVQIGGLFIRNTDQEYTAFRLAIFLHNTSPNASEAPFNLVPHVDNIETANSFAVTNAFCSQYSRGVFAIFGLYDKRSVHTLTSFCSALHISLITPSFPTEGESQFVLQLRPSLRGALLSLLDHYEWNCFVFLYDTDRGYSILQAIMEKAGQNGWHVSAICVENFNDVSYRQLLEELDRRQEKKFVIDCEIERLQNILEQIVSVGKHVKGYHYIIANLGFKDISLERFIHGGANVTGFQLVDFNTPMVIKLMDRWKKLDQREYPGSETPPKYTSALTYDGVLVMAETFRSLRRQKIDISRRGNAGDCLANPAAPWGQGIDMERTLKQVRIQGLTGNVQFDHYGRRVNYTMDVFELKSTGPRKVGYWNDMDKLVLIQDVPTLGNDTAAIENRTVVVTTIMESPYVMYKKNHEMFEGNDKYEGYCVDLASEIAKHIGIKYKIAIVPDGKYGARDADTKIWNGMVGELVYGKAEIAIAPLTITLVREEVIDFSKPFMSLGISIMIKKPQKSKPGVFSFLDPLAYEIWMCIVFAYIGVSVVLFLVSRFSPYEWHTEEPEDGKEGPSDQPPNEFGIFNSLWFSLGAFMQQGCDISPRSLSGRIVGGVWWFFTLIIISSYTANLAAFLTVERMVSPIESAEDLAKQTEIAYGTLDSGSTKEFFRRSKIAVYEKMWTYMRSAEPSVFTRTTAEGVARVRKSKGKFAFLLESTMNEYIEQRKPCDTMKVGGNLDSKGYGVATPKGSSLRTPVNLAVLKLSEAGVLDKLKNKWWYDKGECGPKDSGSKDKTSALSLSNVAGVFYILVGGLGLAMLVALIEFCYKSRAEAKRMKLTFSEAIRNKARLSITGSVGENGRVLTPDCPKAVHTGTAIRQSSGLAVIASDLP

| SMILES | melting point | potentiation of agonist-induced excitability (human GluR4B receptor) |
| --- | --- | --- |
| CC(C)(C)c1ccc(C2(CNS(=O)(=O)C(F)(F)F)CC2)cc1 | 82 to 84 °C | – |
| CC(C)S(=O)(=O)NCC1(c2ccc(C(C)(C)C)cc2)CC1 | 87 to 89.5 °C | – |
| NS(=O)(=O)c1cc2c(cc1Cl)NC(C1CC3C=CC1C3)NS2(=O)=O (stereo not drawn) [cyclothiazide] | – | potentiate agonist-induced excitability of human GluR4B receptor |

Source: patent US6525099B1, “N-substituted sulfonamide derivatives” (Eli Lilly and Company, priority 1998, dated 2003)
